{"source": "ChEMBL document CHEMBL1201862", "about": "“PubChem BioAssay data set” (2004)", "key": {"Beta-galactosidase": {"biological_target": "Beta-galactosidase (Escherichia coli, UniProt Q8VNN2)", "sequence (Q8VNN2 whole entry)": "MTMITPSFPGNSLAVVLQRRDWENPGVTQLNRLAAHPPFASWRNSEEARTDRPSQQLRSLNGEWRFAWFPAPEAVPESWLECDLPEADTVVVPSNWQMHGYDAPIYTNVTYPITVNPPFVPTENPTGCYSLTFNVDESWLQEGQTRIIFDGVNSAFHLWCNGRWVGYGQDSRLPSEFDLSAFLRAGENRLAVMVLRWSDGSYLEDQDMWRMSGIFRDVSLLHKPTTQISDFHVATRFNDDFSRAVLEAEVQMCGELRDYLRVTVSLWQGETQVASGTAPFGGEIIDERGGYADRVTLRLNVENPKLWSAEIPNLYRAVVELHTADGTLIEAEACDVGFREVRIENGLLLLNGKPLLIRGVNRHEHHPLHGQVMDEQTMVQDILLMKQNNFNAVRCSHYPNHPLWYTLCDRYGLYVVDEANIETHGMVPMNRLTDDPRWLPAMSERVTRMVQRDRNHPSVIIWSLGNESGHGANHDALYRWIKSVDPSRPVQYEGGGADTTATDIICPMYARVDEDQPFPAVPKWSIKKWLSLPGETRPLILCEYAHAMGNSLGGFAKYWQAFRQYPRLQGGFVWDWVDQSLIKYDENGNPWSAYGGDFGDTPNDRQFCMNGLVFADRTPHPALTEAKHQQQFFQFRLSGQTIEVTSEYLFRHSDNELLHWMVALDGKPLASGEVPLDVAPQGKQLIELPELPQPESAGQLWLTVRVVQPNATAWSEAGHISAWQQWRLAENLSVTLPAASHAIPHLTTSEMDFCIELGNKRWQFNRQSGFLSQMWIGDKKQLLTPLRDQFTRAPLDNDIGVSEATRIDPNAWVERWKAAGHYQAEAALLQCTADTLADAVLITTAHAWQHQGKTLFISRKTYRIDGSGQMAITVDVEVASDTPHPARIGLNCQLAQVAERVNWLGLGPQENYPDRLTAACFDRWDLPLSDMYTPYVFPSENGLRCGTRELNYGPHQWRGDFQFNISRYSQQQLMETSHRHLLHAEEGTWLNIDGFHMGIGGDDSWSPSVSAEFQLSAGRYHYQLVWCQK", "test": "PubChem AID 485352", "assay_type": "functional"}, "[1]": {"biological_target": "T1, Type-1 angiotensin II receptor (Homo sapiens, UniProt P30556)", "T1 sequence (P30556 whole entry)": "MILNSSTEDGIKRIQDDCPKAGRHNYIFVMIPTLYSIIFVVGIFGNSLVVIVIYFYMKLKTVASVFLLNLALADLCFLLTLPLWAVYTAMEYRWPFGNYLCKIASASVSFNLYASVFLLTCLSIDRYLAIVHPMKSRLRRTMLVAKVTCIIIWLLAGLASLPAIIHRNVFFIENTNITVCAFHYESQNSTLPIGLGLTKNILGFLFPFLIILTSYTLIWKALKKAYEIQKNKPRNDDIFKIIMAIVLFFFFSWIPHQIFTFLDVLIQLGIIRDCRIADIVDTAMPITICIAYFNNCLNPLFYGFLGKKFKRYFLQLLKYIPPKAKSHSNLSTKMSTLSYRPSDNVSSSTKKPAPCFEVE", "test": "AT1 receptor antagonists, dose response, selectivity assay for APJ receptor antagonist project, cell-based, uHTS hits (AID 463214);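 note: antagonist potency against angiotensin II stimulated AT1 response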", "assay_type": "functional"}, "HEK293": {"test_system": "HEK293", "test": "inhibitors of LMP1-driven NF-kB reporter, dose response, cell-based, HEK293, luciferase, cherry-pick (AID 588343)", "assay_type": "functional", "conditions": "Homo sapiens"}, "[2]": {"biological_target": "T2, Latent membrane protein 1 (Human herpesvirus 4 (strain B95-8), UniProt P03230)", "T2 sequence (P03230 whole entry)": "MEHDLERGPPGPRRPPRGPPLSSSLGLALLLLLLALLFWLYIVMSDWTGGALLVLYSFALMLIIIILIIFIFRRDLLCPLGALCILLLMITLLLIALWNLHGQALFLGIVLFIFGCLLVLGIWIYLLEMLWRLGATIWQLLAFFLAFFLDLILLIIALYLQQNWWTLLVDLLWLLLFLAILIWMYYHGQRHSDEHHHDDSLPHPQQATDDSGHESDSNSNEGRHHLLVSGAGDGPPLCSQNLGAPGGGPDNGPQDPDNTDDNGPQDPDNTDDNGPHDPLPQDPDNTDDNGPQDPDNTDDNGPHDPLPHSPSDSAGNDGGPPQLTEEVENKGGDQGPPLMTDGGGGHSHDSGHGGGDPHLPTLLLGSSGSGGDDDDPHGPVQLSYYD", "test": "TES1-eGFP NF-kB reporter inhibition versus Tet-On dsRED, dose response, selectivity assay for LMP1 NF-kB inhibitor project, imaging, HEK293T, dual-color eGFP/dsRED, cherry-picks (AID 588398)", "assay_type": "functional, cell-based"}, "Cytochrome P450 2C9 [3]": {"biological_target": "T3, Cytochrome P450 2C9 (Homo sapiens, UniProt P11712)", "T3 sequence (P11712 whole entry)": "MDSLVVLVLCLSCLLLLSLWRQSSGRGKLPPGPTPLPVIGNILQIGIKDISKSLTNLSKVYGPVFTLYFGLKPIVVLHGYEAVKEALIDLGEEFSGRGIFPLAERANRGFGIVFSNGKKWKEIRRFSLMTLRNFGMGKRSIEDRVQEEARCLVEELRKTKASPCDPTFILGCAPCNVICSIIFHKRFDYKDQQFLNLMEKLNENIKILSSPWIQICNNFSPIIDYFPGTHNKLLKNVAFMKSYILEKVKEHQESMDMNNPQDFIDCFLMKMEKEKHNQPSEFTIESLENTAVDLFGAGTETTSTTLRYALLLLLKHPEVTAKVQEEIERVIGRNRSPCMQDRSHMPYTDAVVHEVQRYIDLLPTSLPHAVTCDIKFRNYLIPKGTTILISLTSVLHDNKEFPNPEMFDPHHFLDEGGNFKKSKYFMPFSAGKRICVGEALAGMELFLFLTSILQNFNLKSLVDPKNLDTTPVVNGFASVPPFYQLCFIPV"}, "[4]": {"test": "inhibitors of SNCA 5'UTR-driven reporter translation, confirmation, H4 neuroglioma cells, luminescence (AID 1988)", "assay_type": "functional, cell-based"}, "[5]": {"test": "inhibitors of firefly luciferase expression or activity, dose response, H4 neuroglioma cells, luminescence (AID 1990)", "assay_type": "functional, cell-based"}, "Vero": {"test_system": "Vero", "test": "cells", "assay_type": "functional, cell-based", "conditions": "Chlorocebus sabaeus"}, "[6]": {"test": "Luminescence Cell-Based Dose Response HTS to Identify Inhibitors of 5'UTR Stem-Loop Driven Prion Protein mRNA Translation in H4 Neuroglioblastoma Cells. [Related pubchem assays: 1827 (Project Summary), 1813 (Primary HTS)]", "assay_type": "functional"}, "Escherichia coli": {"test_system": "Escherichia coli", "test": "microbe, parasite or virus in culture"}, "Cytochrome P450 2C9 [7]": {"biological_target": "T3, Cytochrome P450 2C9", "remark": "listed apart in the source"}, "Cytochrome P450 2C19": {"biological_target": "Cytochrome P450 2C19 (Homo sapiens, UniProt P33261)", "sequence (P33261 whole entry)": "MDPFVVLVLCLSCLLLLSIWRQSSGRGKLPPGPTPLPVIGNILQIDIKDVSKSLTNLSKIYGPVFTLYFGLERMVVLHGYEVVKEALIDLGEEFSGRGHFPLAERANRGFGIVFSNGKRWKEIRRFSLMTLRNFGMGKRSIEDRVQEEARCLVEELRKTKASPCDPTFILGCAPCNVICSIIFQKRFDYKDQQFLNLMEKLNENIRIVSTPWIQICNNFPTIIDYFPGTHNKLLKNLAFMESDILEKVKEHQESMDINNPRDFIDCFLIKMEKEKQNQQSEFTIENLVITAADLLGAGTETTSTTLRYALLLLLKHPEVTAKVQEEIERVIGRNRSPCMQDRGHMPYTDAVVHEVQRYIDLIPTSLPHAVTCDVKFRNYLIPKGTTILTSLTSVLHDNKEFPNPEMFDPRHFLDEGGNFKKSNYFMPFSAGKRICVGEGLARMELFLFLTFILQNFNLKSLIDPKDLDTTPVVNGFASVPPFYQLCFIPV", "test": "Cytochrome panel assay with activity outcomes. Panel member name: p450-cyp2c19 Compounds with AC50 equal or less than 10 uM are considered active", "assay_type": "functional", "conditions": "read-out: AC50"}, "Cytochrome P450 1A2": {"biological_target": "T4, Cytochrome P450 1A2 (Homo sapiens, UniProt P05177)", "T4 sequence (P05177 whole entry)": "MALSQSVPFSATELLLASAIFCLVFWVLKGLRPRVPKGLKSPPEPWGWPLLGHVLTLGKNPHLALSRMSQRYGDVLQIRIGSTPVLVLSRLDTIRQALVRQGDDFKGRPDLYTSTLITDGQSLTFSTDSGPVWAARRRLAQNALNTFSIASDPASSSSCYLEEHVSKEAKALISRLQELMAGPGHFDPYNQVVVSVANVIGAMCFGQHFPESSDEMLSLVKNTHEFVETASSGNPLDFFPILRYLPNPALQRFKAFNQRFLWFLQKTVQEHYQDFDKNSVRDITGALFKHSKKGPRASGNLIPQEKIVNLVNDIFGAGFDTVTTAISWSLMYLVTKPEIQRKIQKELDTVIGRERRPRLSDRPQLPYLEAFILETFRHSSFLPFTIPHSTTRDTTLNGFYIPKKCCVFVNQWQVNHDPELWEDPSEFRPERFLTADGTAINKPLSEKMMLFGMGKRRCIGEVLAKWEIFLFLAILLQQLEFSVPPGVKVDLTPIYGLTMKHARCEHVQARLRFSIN"}, "[8]": {"biological_target": "T5, Short transient receptor potential channel 4 (Mus musculus, UniProt Q9QUQ5)", "T5 sequence (Q9QUQ5 whole entry)": "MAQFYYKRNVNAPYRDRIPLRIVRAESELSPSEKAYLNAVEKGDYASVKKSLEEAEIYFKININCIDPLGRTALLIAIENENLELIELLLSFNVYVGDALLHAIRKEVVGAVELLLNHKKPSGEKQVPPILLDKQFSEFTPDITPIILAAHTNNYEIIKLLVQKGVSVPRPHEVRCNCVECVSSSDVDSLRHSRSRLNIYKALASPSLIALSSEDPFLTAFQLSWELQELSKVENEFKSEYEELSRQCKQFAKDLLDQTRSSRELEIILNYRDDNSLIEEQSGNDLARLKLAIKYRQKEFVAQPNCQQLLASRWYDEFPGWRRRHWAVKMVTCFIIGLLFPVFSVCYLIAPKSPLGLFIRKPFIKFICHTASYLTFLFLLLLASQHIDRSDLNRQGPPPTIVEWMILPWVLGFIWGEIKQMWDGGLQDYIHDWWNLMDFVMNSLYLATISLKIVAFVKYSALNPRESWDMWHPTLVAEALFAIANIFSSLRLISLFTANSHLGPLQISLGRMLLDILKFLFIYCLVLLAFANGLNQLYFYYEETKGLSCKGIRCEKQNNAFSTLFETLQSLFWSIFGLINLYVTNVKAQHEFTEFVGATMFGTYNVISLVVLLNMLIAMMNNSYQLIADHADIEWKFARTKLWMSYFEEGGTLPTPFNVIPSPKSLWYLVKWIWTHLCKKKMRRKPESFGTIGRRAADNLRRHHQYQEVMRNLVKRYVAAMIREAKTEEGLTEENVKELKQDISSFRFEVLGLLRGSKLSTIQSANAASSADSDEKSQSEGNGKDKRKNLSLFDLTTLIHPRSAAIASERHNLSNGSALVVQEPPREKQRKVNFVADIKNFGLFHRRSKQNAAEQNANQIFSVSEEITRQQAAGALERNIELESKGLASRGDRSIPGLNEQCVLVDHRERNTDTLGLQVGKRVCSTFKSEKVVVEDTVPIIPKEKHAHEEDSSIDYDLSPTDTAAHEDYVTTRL", "test": "mouse TRPC4 channel activators, dose response, cell-based, HEK293 TRPC4/mu-opioid, Fluo-4 calcium (AID 434937)", "assay_type": "functional"}}, "note": "Calls of active or inactive are those of the source.", "data": [{"compound": "O=C(CN1C(=O)C2C3CC(C(Br)C3Br)C2C1=O)OCC(=O)c1cccc([N+](=O)[O-])c1", "note": "(stereo unspecified)", "values": [{"measurement": "EC50", "setting": "Beta-galactosidase", "result": "> 40 µM (inactive)"}, {"measurement": "IC50", "setting": "[1]", "result": "20.4 µM (not active)"}]}, {"compound": "O=C1/C(=C/c2cccnc2)SC(=S)N1Cc1ccco1", "values": [{"measurement": "AC50", "setting": "HEK293", "result": "0.758 µM (active)"}, {"measurement": "AC50", "setting": "[2]", "result": "39.5 µM (active)"}, {"measurement": "AC50", "setting": "Cytochrome P450 2C9 [3]", "result": "6.31 µM (inconclusive)"}]}, {"compound": "CC(C)(C)OC(=O)[C@H](Cc1ccccc1)NC(=O)c1[nH]cnc1C(=O)N1CCN(C(=O)OC(C)(C)C)CC1", "values": [{"measurement": "EC50", "setting": "[4]", "result": "26.6 µM (active)"}, {"measurement": "EC50", "setting": "[5]", "result": "61.6 µM (active)"}, {"measurement": "IC50", "setting": "Vero", "result": "18.3 µM (active)"}, {"measurement": "EC50", "setting": "[6]", "result": "20 µM (active)"}]}, {"compound": "Cc1ccc(NC(S)=NCCC2=CCCCC2)cc1", "values": [{"measurement": "AC50", "setting": "Escherichia coli", "result": "115 µM (active)"}]}, {"compound": "CC(=O)NC(Cc1c[nH]cn1)C(=O)O", "note": "(stereo unspecified)", "values": [{"measurement": "AC50", "setting": "Escherichia coli", "result": "29.2 µM (active)"}]}, {"compound": "Cc1ccc(C(=O)NC2CCCCC2)cc1", "values": [{"measurement": "AC50", "setting": "Cytochrome P450 2C9 [7]", "result": "inconclusive"}, {"measurement": "AC50", "setting": "Cytochrome P450 2C19", "result": "25.1 µM (inconclusive)"}, {"measurement": "AC50", "setting": "Cytochrome P450 1A2", "result": "22.4 µM (inconclusive)"}]}, {"compound": "Cc1noc(C)c1C(=O)NNc1ccc(C(C)C)cc1", "values": [{"measurement": "EC50", "setting": "Beta-galactosidase", "result": "> 40 µM (inactive)"}, {"measurement": "IC50", "setting": "[1]", "result": "3.68 µM (active)"}]}, {"compound": "Cc1ccc2c(c1)nnn2C1CCN(CC(=O)N2c3ccccc3CC2C)CC1", "note": "(stereo unspecified)", "values": [{"measurement": "EC50", "setting": "[4]", "result": "81.6 µM (active)"}, {"measurement": "AC50", "setting": "Cytochrome P450 2C9 [7]", "result": "inconclusive"}, {"measurement": "EC50", "setting": "[5]", "result": "> 120 µM (not active)"}, {"measurement": "EC50", "setting": "[6]", "result": "> 120 µM (not active)"}, {"measurement": "AC50", "setting": "Cytochrome P450 1A2", "result": "6.31 µM (inconclusive)"}]}, {"compound": "CCC(=O)NC(C)C(c1cccs1)N1CCN(c2ccccc2)CC1", "note": "(stereo unspecified)", "values": [{"measurement": "EC50", "setting": "[8]", "result": "0.421 µM (active)"}]}, {"compound": "Cn1c(N)c(C(=O)COC(=O)CCCN2C(=O)c3ccccc3C2=O)c(=O)n(C)c1=O", "values": [{"measurement": "AC50", "setting": "Escherichia coli", "result": "31.9 µM (active)"}]}, {"compound": "COc1ccc(C)c(NC(=O)NCCc2c[nH]cn2)c1", "values": [{"measurement": "EC50", "setting": "[8]", "result": "1.88 µM (active)"}]}, {"compound": "Cn1c(C(N)=O)cnc1Sc1ncc(C(F)(F)F)cc1Cl", "values": [{"measurement": "AC50", "setting": "Cytochrome P450 2C9 [7]", "result": "inconclusive"}, {"measurement": "AC50", "setting": "Cytochrome P450 1A2", "result": "28.2 µM (inconclusive)"}]}]}
